In US12234232B2, “Aromatic heterocyclic compound with kinase inhibitory activity” (SHANGHAI ENNOVABIO PHARMACEUTICALS CO., LTD., priority 2018, dated 2025):

Legend:
JAK2 [1] = target: T1, JAK2 (Homo sapiens, UniProt O60674); test: Cellular JAK2 activity assay: EPO-stimulated STAT5 phosphorylation in TF-1 cells; assay type: cell-based; design: endogenous in cells; host or cells: TF-1 cells (ATCC); conditions: EPO (10 U/mL), pSTAT5, read-out: IC50 Cell JAK2
JAK2 [2] = target: T1, JAK2; test: In vitro JAK2 kinase activity assay (HTRF kinEASE TK); assay type: biochemical; design: purchased Carna Biosciences; conditions: 2.7 μM ATP, 25 minutes, room temperature; read-out: IC50 JAK2 (enzyme activity assay)
Outline: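 HTRF kinase reaction with 0.001 ng/μl recombinant human JAK2, 1 μM biotinylated TK substrate peptide, 2.7 μM ATP, 5 mM MgCl2, 1 mM DTT, 25 min at room temperature; compounds 10 μM–0.04 nM, 4-fold steps, duplicate, 1% DMSO. Detection overnight; 665/620 ratio converted to % inhibition, IC50 by 4-parameter fit.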

JAK3 protein = target: T2, JAK3 protein (Homo sapiens, UniProt P52333); test: In vitro JAK3 kinase activity assay (HTRF kinEASE TK); assay type: biochemical; conditions: 0.75 μM ATP, 25 minutes, room temperature; read-out: IC50 JAK3 (enzyme activity assay)
T2 construct: purchased Carna Biosciences
T2 sequence (P52333 1-1124): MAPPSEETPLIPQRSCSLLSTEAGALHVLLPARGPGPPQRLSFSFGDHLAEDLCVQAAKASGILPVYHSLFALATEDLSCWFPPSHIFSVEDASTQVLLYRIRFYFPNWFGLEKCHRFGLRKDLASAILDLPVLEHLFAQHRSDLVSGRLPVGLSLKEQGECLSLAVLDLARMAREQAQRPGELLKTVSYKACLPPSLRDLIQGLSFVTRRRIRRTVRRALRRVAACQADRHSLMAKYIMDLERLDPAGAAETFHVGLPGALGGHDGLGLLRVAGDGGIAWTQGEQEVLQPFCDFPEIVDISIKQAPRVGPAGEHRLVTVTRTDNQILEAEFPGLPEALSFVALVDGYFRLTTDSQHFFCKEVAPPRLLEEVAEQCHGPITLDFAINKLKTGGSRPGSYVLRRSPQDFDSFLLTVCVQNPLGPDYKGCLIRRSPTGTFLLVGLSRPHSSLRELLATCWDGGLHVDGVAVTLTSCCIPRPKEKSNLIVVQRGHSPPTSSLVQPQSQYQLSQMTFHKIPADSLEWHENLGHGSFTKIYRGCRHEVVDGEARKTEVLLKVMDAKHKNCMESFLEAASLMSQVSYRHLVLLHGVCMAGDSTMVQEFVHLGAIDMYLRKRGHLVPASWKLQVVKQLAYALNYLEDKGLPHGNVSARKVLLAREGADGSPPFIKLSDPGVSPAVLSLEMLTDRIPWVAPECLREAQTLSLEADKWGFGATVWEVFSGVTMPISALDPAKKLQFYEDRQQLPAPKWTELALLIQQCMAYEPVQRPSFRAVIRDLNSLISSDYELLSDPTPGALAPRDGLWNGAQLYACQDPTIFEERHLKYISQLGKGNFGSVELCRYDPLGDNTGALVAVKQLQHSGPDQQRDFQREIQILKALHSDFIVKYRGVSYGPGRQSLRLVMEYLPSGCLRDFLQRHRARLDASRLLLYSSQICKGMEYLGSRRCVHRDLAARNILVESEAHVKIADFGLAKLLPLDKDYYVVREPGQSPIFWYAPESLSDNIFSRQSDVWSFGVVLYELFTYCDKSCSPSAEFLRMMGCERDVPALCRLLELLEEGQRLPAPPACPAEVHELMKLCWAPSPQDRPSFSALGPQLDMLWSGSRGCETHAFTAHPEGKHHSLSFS
Outline: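 Recombinant JAK3 ([…]) with 1 μM biotinylated TK substrate peptide and 0.75 μM ATP, 5 mM MgCl2, 1 mM DTT, 1% DMSO; 25 min at room temperature. HTRF read-out (SA-XL665, TK-antibody, overnight) as 665/620 ratio; compounds 10 μM–0.04 nM, 4-fold, duplicates; IC50 from 4-parameter fit.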

T1 sequence (O60674 whole entry): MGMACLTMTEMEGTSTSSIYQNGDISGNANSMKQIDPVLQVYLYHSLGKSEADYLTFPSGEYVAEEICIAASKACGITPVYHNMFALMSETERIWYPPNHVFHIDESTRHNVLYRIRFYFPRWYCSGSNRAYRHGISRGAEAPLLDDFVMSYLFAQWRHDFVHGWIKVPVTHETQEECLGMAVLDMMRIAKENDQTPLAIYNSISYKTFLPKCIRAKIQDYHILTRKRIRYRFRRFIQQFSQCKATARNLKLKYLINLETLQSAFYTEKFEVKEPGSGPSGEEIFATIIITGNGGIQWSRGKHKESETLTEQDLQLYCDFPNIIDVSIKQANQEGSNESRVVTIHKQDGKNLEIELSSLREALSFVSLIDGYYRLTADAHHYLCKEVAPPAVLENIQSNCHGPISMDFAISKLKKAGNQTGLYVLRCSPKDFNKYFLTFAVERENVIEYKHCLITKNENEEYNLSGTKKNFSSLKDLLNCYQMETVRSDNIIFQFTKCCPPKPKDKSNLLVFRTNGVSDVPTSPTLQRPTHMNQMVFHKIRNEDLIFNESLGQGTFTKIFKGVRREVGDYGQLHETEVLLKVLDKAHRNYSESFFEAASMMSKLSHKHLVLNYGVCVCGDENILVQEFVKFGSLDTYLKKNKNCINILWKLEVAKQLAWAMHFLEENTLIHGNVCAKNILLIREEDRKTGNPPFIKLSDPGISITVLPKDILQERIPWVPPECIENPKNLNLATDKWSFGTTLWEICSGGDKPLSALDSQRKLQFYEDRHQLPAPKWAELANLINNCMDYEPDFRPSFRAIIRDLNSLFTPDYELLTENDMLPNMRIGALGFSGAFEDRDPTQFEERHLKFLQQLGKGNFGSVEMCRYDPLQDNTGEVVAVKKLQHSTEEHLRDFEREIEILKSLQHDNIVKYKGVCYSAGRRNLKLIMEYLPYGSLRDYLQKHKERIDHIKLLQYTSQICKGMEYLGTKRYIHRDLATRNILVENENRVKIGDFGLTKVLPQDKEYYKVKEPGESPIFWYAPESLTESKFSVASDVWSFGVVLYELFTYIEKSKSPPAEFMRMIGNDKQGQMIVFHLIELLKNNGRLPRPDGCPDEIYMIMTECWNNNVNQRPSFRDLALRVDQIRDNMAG

CC[C@H](C(=O)Nc1nccc2c(-c3nc(Nc4cn(C)nc4OC)ncc3C)c[nH]c12)N1CCN(C)CC1 [Example 4, (R)—N-(3-(2-((3-Methoxy-1-methyl-1H-pyrazol-4-yl)amino)-5-methylpyrimidin-4-yl)-1H-pyrrolo[2,3-c]pyridin-7-yl)-2-(4-methylpiperazin-1-yl)butanamide]
IC50 (JAK2 [1]): < 10000 nM
IC50 (JAK2 [2]): < 100 nM
IC50 (JAK3 protein): < 500 nM
